Results taken from patent USRE40667E1, “[R-(R*R*)]-2-(4-fluorophenyl)-β,δ-dihydroxy-5-(1-methylethyl-3-phenyl-4-[(phenylamino)carbonyl]-1H-pyrrole-1-heptanoic acid, its lactone form and salts thereof” (Warner-Lambert Company LLC, priority 1989, dated 2009).

Test system: biosynthesis of cholesterol
Assay: CSI screen (cholesterol synthesis inhibition) as disclosed in U.S. Pat. No. 4,681,893
Format: biochemical
Source text: The compounds according to present invention and especially according to the compound of the formula I inhibit the biosynthesis of cholesterol as found in the CSI screen that is disclosed in U.S. Pat. No. 4,681,893 which is now also incorporated by reference therefor. The CSI data of the compound I, its enantiomer the compound II and the racemate of these two compounds are as follows: […]

Row | SMILES | IC50 [nM]
1 | CC(C)c1c(C(=O)Nc2ccccc2)c(-c2ccccc2)c(-c2ccc(F)cc2)n1CC[C@@H](O)C[C@@H](O)CC(=O)O (single isomer, unassigned) [[R—(R*R*)] isomer, [R-(R*,R*)]-2-(4-fluorophenyl)-β,δ-dihydroxy-5-(1-methylethyl)-3-phenyl-4-[(phenylamino)carbonyl]-1H-pyrrole-1-heptanoic acid] | 4.4
2 | CC(C)c1c(C(=O)Nc2ccccc2)c(-c2ccccc2)c(-c2ccc(F)cc2)n1CCC(O)CC(O)CC(=O)O (single isomer, unassigned) [[S—(R*R*)] isomer] | 440
